In publication PMC11763059, “GENI as an AMPK Activator Binds α and γ Subunits and Improves the Memory Dysfunction of Alzheimer’s Disease Mouse Models via Autophagy and Neuroprotection” (Antioxidants, 2025):

Columns and labels:
[1] = mouse, in vivo
Source text: At the end of the animal experiment, the epididymis fat, heart, liver, spleen, and kidney of the mice were removed for weighing analysis.

[2] = test system: BV-2 microglia; assay: BV-2 microglial activity assay (Iba1 staining); type: cell-based, murine; settings: GENI 1, 3, and 10 μM, LPS 1 μg/mL
Experimental: BV-2 cells (2.5 × 10^4) were seeded in 24-well plates. […] We then removed the medium, washed the cells three times with PBS, and fixed the cells with 4% paraformaldehyde (500 μL/well) for 20 min at room temperature. We washed the cells three times with PBS and added Quick Block^TM immunostaining blocking solution (500 μL/well) to block for 60 min. After removing the blocking solution, we added 200 μL of the primary antibody (Anti-Iba1 rabbit monoclonal antibody, 1:1000, abcam178847) to each well and incubated the samples overnight at 4 °C. The next day, the supernatant was discarded, washed three times with PBS, and incubated with the secondary antibody Cart anti-rabbit IgG (1:1000) at room temperature for 1 h. Nuclei were stained with DAPI (250 μL/well) for 5 min, and the fluorescence was observed under a fluorescent inverted microscope (Olympus IX53, Tokyo, Japan).

[3] = test system: AMPK; assay: CETSA with cerebral cortex and hippocampus protein of mice; type: binding; settings: cerebral cortex and hippocampus of mice brains
Experimental: In a 60 mm dish containing 5 mL of DMEM, 2 × 10^6 cells were added and incubated for 24 h. In each plate, 10 μM GENI was added and incubated for 2 h. Cells were harvested and heated at a temperature ranging from 60 °C to 80 °C for PC12 cell samples. We obtained a certain amount of cerebral cortex and hippocampus samples, which were added with PBS and ground. After centrifugation, the supernatant was used as a sample, and we measured the protein concentration with a BCA kit (CoWin Biotech Co., Ltd., Taizhou, Jiangsu, China). The protein of the cerebral cortex or hippocampus was incubated with 10 μM GENI at 37 °C for 2 h and heated from 65 °C to 100 °C for the cerebral cortex sample but 43 °C to 67 °C and 65 °C to 100 °C for the hippocampus sample. Equal volumes of supernatant heated at each temperature point for the control and treatment groups were used for Western blot analysis with the antibody for specific proteins.

[4] = target: T1, AMPK-WT (His-tagged AMPK containing α1β1γ1 protein) (Rattus norvegicus, UniProt P54645+P80385); assay: SPR analysis of binding to purified wild-type AMPK
T1 construct: His (N); made in house
T1 sequence (P54645 13-559 limits assumed): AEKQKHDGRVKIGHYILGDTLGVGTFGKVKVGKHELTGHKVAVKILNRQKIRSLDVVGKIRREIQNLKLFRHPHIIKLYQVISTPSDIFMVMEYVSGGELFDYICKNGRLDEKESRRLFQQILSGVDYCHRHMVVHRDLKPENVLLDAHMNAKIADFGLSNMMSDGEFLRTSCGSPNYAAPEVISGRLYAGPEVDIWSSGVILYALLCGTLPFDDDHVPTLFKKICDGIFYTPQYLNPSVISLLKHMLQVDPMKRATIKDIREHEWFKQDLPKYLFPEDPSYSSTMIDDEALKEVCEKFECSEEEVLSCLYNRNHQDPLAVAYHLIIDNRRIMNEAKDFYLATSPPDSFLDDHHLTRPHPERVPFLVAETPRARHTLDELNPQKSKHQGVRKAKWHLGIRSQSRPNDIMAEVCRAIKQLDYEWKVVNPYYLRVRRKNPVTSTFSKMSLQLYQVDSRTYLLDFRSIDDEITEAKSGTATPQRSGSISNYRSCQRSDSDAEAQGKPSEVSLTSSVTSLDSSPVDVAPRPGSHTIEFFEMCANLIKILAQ
T1 sequence (P80386 whole entry partner): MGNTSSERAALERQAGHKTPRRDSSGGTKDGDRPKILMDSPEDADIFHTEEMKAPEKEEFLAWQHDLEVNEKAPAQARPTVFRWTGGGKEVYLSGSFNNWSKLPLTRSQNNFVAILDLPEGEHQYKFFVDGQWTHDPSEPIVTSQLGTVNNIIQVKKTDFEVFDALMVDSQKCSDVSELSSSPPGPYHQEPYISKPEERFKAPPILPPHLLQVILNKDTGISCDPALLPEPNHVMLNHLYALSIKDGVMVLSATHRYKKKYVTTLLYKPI
T1 sequence (P80385 whole entry): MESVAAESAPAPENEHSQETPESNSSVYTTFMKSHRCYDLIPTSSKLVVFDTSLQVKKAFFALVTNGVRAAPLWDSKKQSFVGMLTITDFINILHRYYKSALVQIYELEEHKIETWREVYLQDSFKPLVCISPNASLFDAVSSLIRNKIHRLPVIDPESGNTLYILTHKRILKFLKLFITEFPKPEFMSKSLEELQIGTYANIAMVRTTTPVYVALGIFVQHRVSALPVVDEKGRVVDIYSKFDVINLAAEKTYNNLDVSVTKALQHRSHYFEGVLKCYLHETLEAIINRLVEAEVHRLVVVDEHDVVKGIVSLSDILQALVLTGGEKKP
Experimental: (§1) Mammalian AMPK subunits (His-α1, β1, and γ1) were cloned into a pET-3d vector, and protein expression and purification were similar to the literature.
SPR analysis was performed with a Biacore T200 instrument (GE Healthcare). Firstly, the purred His-tagged AMPK containing α1β1γ1 protein was captured onto an activated carboxymethylated 5 (CM5) chip using amine coupling to levels ranging from 4000 RU to 6000 RU. Secondly, GENI was dissolved in PBS-P buffer solution (0.05% (v/v) Tween 20 and PBS), and the concentration of GENI was 64 μM. […] The sample was filtered by pumping through a […] membrane. A gradient concentration of GENI was injected at a flow rate of 30 μL/min in a running buffer (0.05% (v/v) Tween 20 and PBS). The data were analyzed with Biacore evaluation software (T200 version 2.0) and fitted to the 1:1 Langmuir binding model, and the kinetic parameters were derived.

[5] = target: T2, AMPK-s6 (γ subunit- K309A) (Rattus norvegicus, UniProt P54645+P80385, K309A); assay: SPR analysis, AMPK mutant s6; type: binding
T2 construct: His (N); made in house
T2 sequence (P54645 13-559 limits assumed): as the sequence (P54645 13-559 limits assumed) above
T2 sequence (P80386 whole entry partner): as the sequence (P80386 whole entry partner) above
T2 sequence (P80385 whole entry K309A): as the sequence (P80385 whole entry) above, with K309A counted along it
Experimental: as §1
SPR analysis was performed with a Biacore T200 instrument (GE Healthcare). Firstly, the purred His-tagged AMPK containing α1β1γ1 protein was captured onto an activated carboxymethylated 5 (CM5) chip using amine coupling to levels ranging from 4000 RU to 6000 RU. Secondly, GENI was dissolved in PBS-P buffer solution (0.05% (v/v) Tween 20 and PBS), and the concentration of GENI was 64 μM. Thirdly, the solution of GENI was diluted to 32 μM, 16 μM, 8 μM, 4 μM, 2 μM, 1 μM and 0.5 μM with PBS-P buffer solution. The sample was filtered by pumping through a […] membrane. A gradient concentration of GENI was injected at a flow rate of 30 μL/min in a running buffer (0.05% (v/v) Tween 20 and PBS). The data were analyzed with Biacore evaluation software (T200 version 2.0) and fitted to the 1:1 Langmuir binding model, and the kinetic parameters were derived.
The non-covalent interaction between drugs and proteins is an important way to exert drug efficacy, and its mode of action and binding affinity usually determine the utilization and biological activity of drugs. AMPK is a heterotrimer complex consisting of an α subunit containing the kinase domain and two regulatory subunits (β- and γ-). Different action sites have varied or even opposite pharmacological effects. The molecular mechanism of interaction between the protein and molecule should be investigated thoroughly. After co-incubation of GENI and AMPK, LC-MS/MS measurements were performed to predict the binding sites. As shown in Extended Data Figure S2, ASP148, ASP157 and ASP166 of the AMPK α subunits and LYS148, ASP156, LYS309, and ASP316 of the AMPK γ subunit were possible to the binding sites of GENI. […] Thus, all of these seven sites affected the binding of GENI and AMPK to varying degrees, and they were located in the C lobe kinase domain of the AMPK α subunit, and the CBS2 and CBS4 domain of the AMPK γ subunit, respectively.

[6] = test system: D-gal-induced AD mice; assay: Immunohistochemistry of brain in D-gal-induced AD mice; type: in vivo; settings: compared with the D-gal group
Experimental: Each group comprised 10 mice. […] Dosing lasted for 10 weeks. […] The mice were sacrificed after 10 weeks of administration.
Firstly, the three mice of each group were subjected to heart perfusion at the end of the animal experiment, and the whole brain was removed and placed in 15 mL of 4% paraformaldehyde and stored at 4 °C for 24 h. Secondly, we changed 4% paraformaldehyde into 15% sucrose solution and stored the solution at 4 °C for 24 h. We then changed the solution to 30% sucrose solution to dehydrate for 2 days. Thirdly, the mouse brain tissue was embedded in a cryo-embedding medium, and about 80 slices with a thickness of 20 μm were cut in the hippocampus using a cryostat (Thermal Fisher, Shanghai, China). The sections of mice in each group were immunohistochemically stained with primary antibodies, such as neuronal nuclear anti gen (NeuN), ionized calcium-binding adapter molecule 1 (Iba-1), inducible nitric oxide synthase (iNOS, pro-inflammatory factors), synaptophysin (Syp), and glial fibrillary acidic protein (GFAP), and secondary antibody. The product number and usage ratios of primary and secondary antibodies are detailed in Supplementary Table S4. Finally, the sections were observed under an upright two-photon confocal microscope (Olympus BX61, Tokyo, Japan) and recorded by a camera. The pictures were digitized with ImageJ software V1.8.0.112 (National Institutes of Health, Bethesda, MD, USA).

[7] = DON 3 mg/kg, GENI 12.5, 25, 50 mg/kg groups

Structure (SMILES): CC(C)CCOC(=O)C1=CO[C@@H](O[C@@H]2O[C@H](CO)[C@@H](O)[C@H](O)[C@H]2O)C2C(CO)=CCC12 (stereo partly shown) [GENI, Geniposidic 4-isoamyl ester]
- myocardial hypertrophy and toxic side effects [1]: did not find
- LPS-induced activation in BV-2 microglia [2]: inhibiting
- stability of AMPK proteins (CETSA) [3]: enhanced the stability
- Kd ([4]; 1:1 Langmuir binding model): 1.07 µM
- kon ([4]; association rate, read-out: Ka): 2320 M⁻¹ s⁻¹
- Kd ([5]; SPR): 6.21 µM
- kon ([5]; SPR, association rate, read-out: Ka): 806 M⁻¹ s⁻¹
- response (RU) in SPR ([5]; point mutation of K309, versus wild-type): significantly reduced
- activation of astrocytes (GFAP) in the cerebral cortex [6]: decreased
- activation of microglia (Iba-1) in the cerebral cortex [6]: decreased
- expression of iNOS in the cerebral cortex [6]: decreased
- Syp intensity in the cerebral cortex [6, 7]: significantly increased
- mature neurons (NeuN) in the cerebral cortex and hippocampus [6, 7]: significantly increased
